Reference: ChEMBL document CHEMBL4828764, “Lead Optimization and Structure-Activity Relationship Studies on Myeloid Ecotropic Viral Integration Site 1 Inhibitor” (J Med Chem, 2021)
Calls of active or inactive are those of the source. The rule behind the calls is not given here.

Key:
Type in all cases: cell-based
[1] = biological target: T1, Homeobox protein Meis1 (Homo sapiens) (UniProt O00470); assay: Inhibition of MEIS1 (unknown origin) expressed in HEK293T cells co-expressing MEIS-Luc-pGL2 assessed as luciferase activity at 10 uM incubated for 48 hrs by luciferase reporter assay related to […] control; set-up: scale not given: the % may be the effect or the level left
T1 sequence (whole entry): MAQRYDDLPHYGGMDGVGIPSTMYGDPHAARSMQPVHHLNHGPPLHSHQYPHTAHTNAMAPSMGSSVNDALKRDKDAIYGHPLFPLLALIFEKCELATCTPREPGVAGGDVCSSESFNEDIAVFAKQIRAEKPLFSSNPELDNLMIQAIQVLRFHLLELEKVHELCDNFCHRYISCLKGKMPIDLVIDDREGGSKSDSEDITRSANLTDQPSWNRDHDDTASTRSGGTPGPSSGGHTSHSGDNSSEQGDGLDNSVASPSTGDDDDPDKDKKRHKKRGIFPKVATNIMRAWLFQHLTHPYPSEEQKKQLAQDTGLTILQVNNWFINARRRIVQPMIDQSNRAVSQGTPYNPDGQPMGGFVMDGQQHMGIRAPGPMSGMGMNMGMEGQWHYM

[2] = biological target: T1, Homeobox protein Meis1 (Homo sapiens); assay: Inhibition of MEIS1 (unknown origin) expressed in HEK293T cells co-expressing MEIS-Luc-pGL2 assessed as luciferase activity at 10 uM incubated for 48 hrs by luciferase reporter assay related to protein content; set-up: scale not given: the % may be the effect or the level left
[3] = biological target: T1, Homeobox protein Meis1 (Homo sapiens); assay: Inhibition of MEIS1 (unknown origin) expressed in HEK293T cells co-expressing MEIS-Luc-pGL2 assessed as downregulation of p21 gene expression by measuring mRNA level at 10 uM incubated for 2 days by RT-qPCR analysis; set-up: scale not given: the % may be the effect or the level left; settings: time 2.0 day
[4] = Cytotoxicity against HDF assessed as cell viability at 10 uM incubated for 72 hrs by MTS assay; settings: human, HDF (NHDF) cells, read-out: Activity
[5] = biological target: T1, Homeobox protein Meis1 (Homo sapiens); assay: Inhibition of MEIS1 (unknown origin) expressed in HEK293T cells co-expressing MEIS-Luc-pGL2 assessed as downregulation of Meis1 gene expression measuring mRNA level at 10 uM incubated for 2 days by RT-qPCR analysis; set-up: scale not given: the % may be the effect or the level left; settings: time 2.0 day
[6] = biological target: T1, Homeobox protein Meis1 (Homo sapiens); assay: Inhibition of MEIS1 (unknown origin) expressed in HEK293T cells co-expressing MEIS-Luc-pGL2 assessed as downregulation of Hif-Ialpha gene expression measuring mRNA level at 10 uM incubated for 2 days by RT-qPCR analysis; settings: time 2.0 day

Structure (SMILES): O=C(COc1ccc(C(=O)Nc2ccccc2)cc1)NCc1ccccc1Cl
- Activity [1]: 48%
- Activity [2]: 54%

Structure (SMILES): Cc1cccc(NC(=O)c2ccc(OCC(=O)NCc3cccc(C(F)(F)F)c3)cc2)c1C
- Activity [1]: 106%
- Activity [2]: 57%

Structure (SMILES): Cc1cccc(NC(=O)c2ccc(OCC(=O)NCc3ccc4c(c3)OCO4)cc2)c1C
- Activity [1]: 54%
- Activity [2]: 52%

Structure (SMILES): COc1ccc(NC(=O)c2ccc(OCC(=O)NCc3ccc(Cl)cc3)cc2)cc1OC
- Activity [1]: 45%
- Activity [2]: 56%

Structure (SMILES): O=C(COc1ccc(C(=O)Nc2ccc(F)cc2)cc1)NCc1ccccc1Cl
- Activity [1]: 50%
- Activity [2]: 51%

Structure (SMILES): Cc1cccc(C)c1NC(=O)c1ccc(OCC(=O)NCc2ccc(Cl)cc2)cc1
- Activity [1]: 55%
- Activity [2]: 77%

Structure (SMILES): COc1ccc(CNC(=O)COc2ccc(C(=O)Nc3ccc(OC)c(OC)c3)cc2)cc1
- Activity [1]: 70%
- Activity [2]: 63%

Structure (SMILES): Cc1cccc(NC(=O)c2ccc(OCC(=O)NCc3cccc(Cl)c3Cl)cc2)c1C
- Activity [1]: 161%
- Activity [2]: 48%

Structure (SMILES): Cc1cccc(NC(=O)c2ccc(OCC(=O)NCc3ccc(Cl)cc3Cl)cc2)c1C
- Activity [1]: 61%
- Activity [2]: 52%

Structure (SMILES): COc1ccc(CNC(=O)COc2ccc(C(=O)Nc3ccc(F)cc3)cc2)cc1
- Activity [3]: 20.3%
- Activity [1]: 31%
- viability at 72 h, 10 µM [4]: 86.2%
- Activity [5]: 7.5%
- Activity [6]: Active
- Activity [2]: 25%

Structure (SMILES): CCc1cccc(NC(=O)c2ccc(OCC(=O)NCc3ccc(OC)cc3)cc2)c1
- Activity [1]: 51%
- Activity [2]: 51%

Structure (SMILES): Cc1cccc(NC(=O)c2ccc(OCC(=O)NCc3ccc(C(F)(F)F)cc3)cc2)c1C
- Activity [1]: 81%
- Activity [2]: 26%

Structure (SMILES): O=C(COc1ccc(C(=O)Nc2ccc(Oc3ccc(Br)cc3)cc2)cc1)NCc1ccc(Cl)cc1
- Activity [1]: 42%
- Activity [2]: 72%

Structure (SMILES): CCc1cccc(NC(=O)c2ccc(OCC(=O)NCc3ccccc3Cl)cc2)c1
- Activity [1]: 41%
- Activity [2]: 42%

Structure (SMILES): COc1ccc(CNC(=O)COc2ccc(C(=O)Nc3cccc(C)c3C)cc2)cc1
- Activity [3]: 15.7%
- Activity [1]: 48%
- viability at 72 h, 10 µM [4]: 86.3%
- Activity [5]: 14.3%
- Activity [6]: Active
- Activity [2]: 50.6%

Structure (SMILES): Cc1cccc(NC(=O)c2ccc(OCC(=O)NCc3ccc([N+](=O)[O-])cc3)cc2)c1C
- Activity [1]: 144%
- Activity [2]: 23%

Structure (SMILES): Cc1cccc(NC(=O)c2ccc(OCC(=O)NCc3ccccc3Cl)cc2)c1C
- Activity [3]: 25.3%
- Activity [1]: 34%
- viability at 72 h, 10 µM [4]: 64.8%
- Activity [5]: 13.7%
- Activity [6]: Active
- Activity [2]: 43%

Structure (SMILES): Cc1cccc(C)c1NC(=O)c1ccc(OCC(=O)NCc2ccccc2Cl)cc1
- Activity [1]: 58%
- Activity [2]: 53%

Structure (SMILES): COc1ccc(CNC(=O)COc2ccc(C(=O)Nc3ccc(Oc4ccc(Br)cc4)cc3)cc2)cc1
- Activity [1]: 45%
- Activity [2]: 37%

Structure (SMILES): COc1ccc(CNC(=O)COc2ccc(C(=O)Nc3ccccc3F)cc2)cc1
- Activity [1]: 70%
- Activity [2]: 66%

Structure (SMILES): CCc1ccccc1NC(=O)c1ccc(OCC(=O)NCc2ccc(Cl)cc2)cc1
- Activity [3]: 139%
- Activity [1]: 36%
- viability at 72 h, 10 µM [4]: 31.3%
- Activity [5]: 19.2%
- Activity [6]: Active
- Activity [2]: 51%

Structure (SMILES): Cc1ccc(CNC(=O)COc2ccc(C(=O)Nc3cccc(C)c3C)cc2)cc1
- Activity [1]: 51%
- Activity [2]: 48%

Structure (SMILES): COc1ccc(CNC(=O)COc2ccc(C(=O)Nc3cc(C(F)(F)F)ccc3F)cc2)cc1
- Activity [3]: 5.2%
- Activity [1]: 30%
- viability at 72 h, 10 µM [4]: 105%
- Activity [5]: 6.6%
- Activity [6]: Active
- Activity [2]: 28%

Structure (SMILES): COc1ccc(NC(=O)c2ccc(OCC(=O)NCc3ccccc3Cl)cc2)cc1OC
- Activity [1]: 82%
- Activity [2]: 80%

Structure (SMILES): O=C(COc1ccc(C(=O)Nc2cccc(Cl)c2)cc1)NCc1ccc(Cl)cc1
- Activity [3]: 19.7%
- Activity [1]: 32%
- viability at 72 h, 10 µM [4]: 86.4%
- Activity [5]: 4.5%
- Activity [6]: Active
- Activity [2]: 51%

Structure (SMILES): Cc1cccc(NC(=O)c2ccc(OCC(=O)NCc3ccc(Cl)cc3)cc2)c1C
- Activity [3]: 47.4%
- Activity [1]: 34%
- viability at 72 h, 10 µM [4]: 73.5%
- Activity [5]: 35.9%
- Activity [6]: Active
- Activity [2]: 38%

Structure (SMILES): O=C(COc1ccc(C(=O)Nc2cccc(Cl)c2)cc1)NCc1ccccc1Cl
- Activity [1]: 96%
- Activity [2]: 88%

Structure (SMILES): CCc1ccccc1NC(=O)c1ccc(OCC(=O)NCc2ccc(OC)cc2)cc1
- Activity [3]: 8.5%
- Activity [1]: 20%
- viability at 72 h, 10 µM [4]: 78%
- Activity [5]: 8.3%
- Activity [6]: Active
- Activity [2]: 19%

Structure (SMILES): COc1ccc(CNC(=O)COc2ccc(C(=O)Nc3cccc(C)c3C)cc2)c(OC)c1
- Activity [1]: 17%
- Activity [2]: 50%

Structure (SMILES): O=C(COc1ccc(C(=O)Nc2ccccc2F)cc1)NCc1ccc(Cl)cc1
- Activity [1]: 40%
- Activity [2]: 65%

Structure (SMILES): Cc1cccc(NC(=O)c2ccc(OCC(=O)NCc3ccc(F)cc3)cc2)c1C
- Activity [3]: 25.6%
- Activity [1]: 36%
- viability at 72 h, 10 µM [4]: 90.4%
- Activity [5]: 24.3%
- Activity [6]: Active
- Activity [2]: 40%

Structure (SMILES): O=C(COc1ccc(C(=O)Nc2cccc(C(F)(F)F)c2)cc1)NCc1ccccc1Cl
- Activity [1]: 57%
- Activity [2]: 64%

Structure (SMILES): COc1ccc(CNC(=O)COc2ccc(C(=O)Nc3cccc(C(F)(F)F)c3)cc2)cc1
- Activity [3]: 49.5%
- Activity [1]: 1%
- viability at 72 h, 10 µM [4]: 76%
- Activity [5]: 15.1%
- Activity [6]: Active
- Activity [2]: 1%

Structure (SMILES): COc1ccc(CNC(=O)COc2ccc(C(=O)Nc3cccc(C)c3C)cc2)cc1OC
- Activity [3]: 21.7%
- Activity [1]: 35%
- viability at 72 h, 10 µM [4]: 83.9%
- Activity [5]: 9.5%
- Activity [6]: Active
- Activity [2]: 49%

Structure (SMILES): Cc1cccc(NC(=O)c2ccc(OCC(=O)NCc3ccc(Cl)c(Cl)c3)cc2)c1C
- Activity [1]: 47%
- Activity [2]: 57%

Structure (SMILES): O=C(COc1ccc(C(=O)Nc2ccc(Oc3ccc(Br)cc3)cc2)cc1)NCc1ccccc1Cl
- Activity [1]: 82%
- Activity [2]: 82%

Structure (SMILES): O=C(COc1ccc(C(=O)Nc2ccccc2)cc1)NCc1ccc(Cl)cc1
- Activity [1]: 75%
- Activity [2]: 83%

Structure (SMILES): O=C(COc1ccc(C(=O)Nc2ccc(F)cc2)cc1)NCc1ccc(Cl)cc1
- Activity [1]: 43%
- Activity [2]: 69%

Structure (SMILES): COc1ccc(CNC(=O)COc2ccc(C(=O)Nc3c(C)cccc3C)cc2)cc1
- Activity [1]: 62%
- Activity [2]: 58%

Structure (SMILES): COc1ccc(CNC(=O)COc2ccc(C(=O)Nc3ccccc3)cc2)cc1
- Activity [1]: 43%
- Activity [2]: 43%

Structure (SMILES): Cc1cccc(NC(=O)c2ccc(OCC(=O)NCc3ccccc3)cc2)c1C
- Activity [3]: 17.8%
- Activity [1]: 69%
- Activity [5]: 12%
- Activity [2]: 66%

Structure (SMILES): O=C(COc1ccc(C(=O)Nc2cccc(C(F)(F)F)c2)cc1)NCc1ccc(Cl)cc1
- Activity [1]: 44%
- Activity [2]: 46%

Structure (SMILES): COc1ccc(CNC(=O)COc2ccc(C(=O)Nc3cccc(Cl)c3)cc2)cc1
- Activity [3]: 12.7%
- Activity [1]: 5%
- viability at 72 h, 10 µM [4]: 90%
- Activity [5]: 5.9%
- Activity [6]: Active
- Activity [2]: 5%

Structure (SMILES): CCc1cccc(NC(=O)c2ccc(OCC(=O)NCc3ccc(Cl)cc3)cc2)c1
- Activity [1]: 49%
- Activity [2]: 69%

Structure (SMILES): O=C(COc1ccc(C(=O)Nc2ccccc2F)cc1)NCc1ccccc1Cl
- Activity [1]: 62%
- Activity [2]: 64%

Structure (SMILES): CCc1ccccc1NC(=O)c1ccc(OCC(=O)NCc2ccccc2Cl)cc1
- Activity [1]: 66%
- Activity [2]: 63%
